From article PMC4844649, “A first-in-Asian phase 1 study to evaluate safety, pharmacokinetics and clinical activity of VS-6063, a focal adhesion kinase (FAK) inhibitor in Japanese patients with advanced solid tumors” (Cancer Chemotherapy and Pharmacology, 2016)
Where “and” joins values, the source holds several entries; their conditions need not be identical. Equal values may be shown once. Entries after “also recorded” stand apart in the source; their conditions may differ. Read-outs that look alike come from different tables or passages of the source.

What was measured:
[1] = phase 1 plasma pharmacokinetics, Cycle 1 Days 1 and 15; format: in vivo, human; conditions: for V z, individual values: Day 15, N = 2, individual values are presented; for half-life / Cmax / AUC(0-t) / Tmax / AUC(0-inf): human, plasma; for AUC(0-t): read-out: AUC0–12h, GM (CV %)
Protocol: Pharmacokinetic samples were to be collected for determination of VS-6063 concentration and potential metabolites at the time points of Pre-dose (within 30 min of VS-6063 dosing), postdose (15 min, 30 min, and 1, 2, 4, 8, 12, and 24 h after VS-6063 administration) during Cycle 1 on Days 1 and 15. The analytical laboratory measured plasma concentrations using a validated method. Phoenix WinNonlin (v 6.3, Pharsight Inc., Mountain View, CA) was used to estimate all pharmacokinetic parameters using the non-compartmental analysis tool and the plasma model. Cmax and Tmax were determined by direct assessment (no calculations) of the concentration versus time data. All AUC calculations followed the linear trapezoidal rule. As data permitted, the terminal elimination rate constant (lambda z, λz) for VS-6063 data was calculated. Lambda z was determined by the slope of the regression line of the natural log transformed concentrations versus time with at least three data points not including the Cmax and a correlation coefficient (R^2) of regression >0.90. In instances where the λz range was not at least twofold greater than the calculated half-life, the resulting values (AUCINF, CL/F and Vz/F) were deemed unreliable and were not reported, although the half-life will be calculated and reported if the λz range met the R^2 requirements. The following PK parameters were to be calculated: oral clearance (CL/F), maximum concentration (Cmax), Tmax, half-life (T1/2), area under the curve (AUC), and other relevant parameters.

UGT1A1 = conditions: in vitro; no reference given; cited from earlier work
[2] = preclinical; no reference given; cited from earlier work
other nontarget kinases = conditions: background statement, no reference given; cited from earlier work
[3] = 24-h urine collection, elimination of VS-6063 and metabolites; format: in vivo, human; conditions: all dose cohorts
Description: To assess the elimination of VS-6063 and its potential metabolites, total 24-h urine output was to be collected on Cycle 1 Day 1 and Cycle 1 Day 15 in conjunction with PK sampling.

[4] = test system: advanced solid tumor malignancies; assay: antitumor activity by RECIST v1.1; format: in vivo, human
Protocol: This was a phase 1, open-label, dose-escalation study to evaluate the safety and PK of VS-6063, a FAK inhibitor in Japanese subjects with advanced solid tumor malignancies. This study was expected to enroll up to 18 evaluable subjects with non-hematologic malignancies if 6 subjects were assigned at each of the 3 planned dose levels of 200, 400, and 600 mg BID. VS-6063 was administered orally, BID, in continuous 21 day cycles. Subject enrollment proceeded according to a standard 3 + 3 design. In the absence of DLT, each subject received oral VS-6063 (BID) for a minimum of 21 days of continuous daily dosing (1 cycle) and could continue to receive additional cycles of study treatment until disease progression was documented or other treatment discontinuation criteria were met. All patients within a cohort were required to complete 1 cycle (21 days) of dosing with <1 of 3 or <2 of 6 subjects experiencing a DLT prior to escalation to the next dose level in a new cohort. Three subjects were to be treated at each dose level until the first instance of DLT, after which up to 6 subjects were to be treated at that dose level. […] The MTD was defined as the highest dose level studied at which <1 subject out of 3 or <2 subjects out of 6 experienced a DLT. The RP2D was to be determined in discussion among the sponsor, medical monitor, and investigators. Observations related to PK and any VS-6063-related toxicities were included in the rationale supporting the RP2D. Safety and tolerability was assessed by the incidence and severity of AEs as determined by National Cancer Institute (NCI) Common Terminology Criteria for Adverse Events (CTCAE v4.03). The antitumor activity of study treatment was assessed according to the Response Evaluation Criteria in Solid Tumors (RECIST v1.1).

[5] = po, 200 mg, 200 mg BID oral, n = 3, Day 1
[6] = po, 200 mg, 200 mg BID oral, n = 3, Day 15
[7] = po, 400 mg, 400 mg BID oral, n = 3, Day 1
[8] = po, 400 mg, 400 mg BID oral, n = 3, Day 15
[9] = po, 600 mg, 600 mg BID oral, n = 3, Day 1
[10] = po, 600 mg, 600 mg BID oral, n = 3, Day 15

CNC(=O)c1ccc(Nc2ncc(C(F)(F)F)c(NCc3nccnc3N(C)S(C)(=O)=O)n2)cc1 [VS-6063, defactinib]
V z, individual values ([1]; 200 mg BID oral): 334 L and 99.6 L | exposure compared with that previously reported in non-Japanese subjects ([1]; 400 mg BID (RP2D)): comparable; also recorded: consistent with previously reported data in non-Japanese patients; also recorded: comparable to that previously reported in non-Japanese patients | V z, individual values ([1]; 600 mg BID oral): 158 L and 3060 L | increase in exposure at doses above 400 mg BID ([1]; 600 mg versus 400 mg BID): did not result in a significant increase in VS-6063 exposure | dose proportionality of plasma exposure (Cmax and AUC) ([1]; 200–600 mg BID): less than dose proportional | half-life ([1]; oral, 200–600 mg BID, Days 1 and 15, read-out: median half-life values, range across all dose regimens and both PK study days): 138 to 258 min | Cmax [1, 5]: 630 ng/mL | AUC(0-t) [1, 5]: 3780 ng·h/mL | Tmax ([1]; po, 200 mg, 200 mg BID oral, n = 3, Day 1, read-out: T max, median (range)): 2 h | half-life ([1]; po, 200 mg, 200 mg BID oral, n = 3, Day 1, read-out: t 1/2, median (range) (converted)): 258 min | Cmax [1, 6]: 930 ng/mL | AUC(0-t) [1, 6]: 6240 ng·h/mL | Tmax ([1]; po, 200 mg, 200 mg BID oral, n = 3, Day 15, read-out: T max, median (range)): 2 h | half-life ([1]; po, 200 mg, 200 mg BID oral, n = 3, Day 15, read-out: t 1/2, median (range) (converted)): 177 min | Cmax [1, 7]: 670 ng/mL | AUC(0-t) [1, 7]: 3370 ng·h/mL | Tmax ([1]; po, 400 mg, 400 mg BID oral, n = 3, Day 1, read-out: T max, median (range)): 2 h | half-life ([1]; po, 400 mg, 400 mg BID oral, n = 3, Day 1, read-out: t 1/2, median (range) (converted)): 147 min | Cmax [1, 8]: 960 ng/mL | AUC(0-t) [1, 8]: 5710 ng·h/mL | Tmax ([1]; po, 400 mg, 400 mg BID oral, n = 3, Day 15, read-out: T max, median (range)): 2 h | half-life ([1]; po, 400 mg, 400 mg BID oral, n = 3, Day 15, read-out: t 1/2, median (range) (converted)): 180 min | Cmax [1, 9]: 610 ng/mL | AUC(0-t) [1, 9]: 2680 ng·h/mL | Tmax ([1]; po, 600 mg, 600 mg BID oral, n = 3, Day 1, read-out: T max, median (range)): 2 h | half-life ([1]; po, 600 mg, 600 mg BID oral, n = 3, Day 1, read-out: t 1/2, median (range) (converted)): 167 min | Cmax [1, 10]: 980 ng/mL | AUC(0-t) [1, 10]: 4880 ng·h/mL | Tmax ([1]; po, 600 mg, 600 mg BID oral, n = 3, Day 15, read-out: T max, median (range)): 2 h | half-life ([1]; po, 600 mg, 600 mg BID oral, n = 3, Day 15, read-out: t 1/2, median (range) (converted)): 136 min | Tmax ([1]; po, oral doses of 200–600 mg BID, all cohorts, read-out: Tmax range): 0.5 to 4 h | Tmax ([1]; po, oral doses of 200–600 mg BID, all cohorts, read-out: median Tmax): 2 h | AUC(0-inf) ([1]; 200 mg BID oral, n = 3, Day 1): 4390 ng·h/mL | AUC(0-inf) ([1]; 400 mg BID oral, n = 3, Day 1): 3840 ng·h/mL | AUC(0-inf) ([1]; 600 mg BID oral, n = 3, Day 1): 3000 ng·h/mL | UGT1A1 inhibition (UGT1A1): UGT1A1 inhibitors in vitro | potential target organs in toxicology studies [2]: liver and gall bladder, gastrointestinal tract, hematopoietic system, testes/epididymis, and cardiovascular system | selectivity for FAK and Pyk2 over other nontarget kinases (other nontarget kinases): more than 100 fold | detection in urine [3]: detected in the urine of all patients | amount in urine, percent relative to the total dose administered, range ([3]; 24-h urine): 0.0439 to 0.356% | CL renal ([3]; human, oral, 24-h urine, Days 1 and 15, read-out: mean renal clearance (CLr), range): 1.43 to 2.98 mL/min | median time to disease progression, range across dose cohorts ([4]; 200, 400, 600 mg cohorts): 61 to 64 days | objective radiographic responses ([4]; 200–600 mg BID): No objective radiographic responses were observed | best response overall: stable disease ([4]; out of 9 subjects (33 %), 1 subject in each dose cohort): 3 subjects | durable stable disease ([4]; two subjects (malignant mesothelioma 400 mg and rectal cancer 600 mg)): approximately 24 weeks
